Where two headings read alike, the source gives them in different places. Square brackets hold non-standard residues; d marks the D form. Peptide text beside a SMILES is read from it. Cit = NC(=O)NCCC[C@H](N)C(=O)O
Legend:
HLA-DRB1*01:01 = biological target: T1, HLA-DRB1*01:01 (Homo sapiens, UniProt P01903+P01911, A100R/D57E/F55L/F60I/F76Y/I96L/L162R/M171V/P40L/Q125E/R42F/V115G/Y59C); experiment: HLA class II peptide binding, inhibition of radiolabeled peptide binding to purified MHC
T1 construct: EBV transformed homozygous cell lines were used as sources of MHC molecules; endogenous in cells; host or cells: EBV transformed homozygous cell lines

HLA-DRB1*04:01 = biological target: T2, HLA-DRB1*04:01 (Homo sapiens, UniProt P01903+P01911, A100K/A169T/F76Y/I96L/K127E/L162R/M171V/N62H/P40V/Q125Y/R42H/S133A/S149N/S66Y/V115G/V209L/W38E); experiment: as above
T2 construct: EBV transformed homozygous cell lines were used as sources of MHC molecules; endogenous in cells; host or cells: EBV transformed homozygous cell lines

[1] = citrullinated peptide as listed (X at Cit position), read-out: DRB1*01:01 binding capacity Cit peptide (IC50 nM)
[2] = citrullinated peptide as listed (X at Cit position), read-out: DRB1*04:01 binding capacity Cit peptide (IC50 nM)
[3] = citrullinated 15-mer peptide (X = citrulline), purified HLA-DRB1*01:01, read-out: DRB1*01:01 binding capacity, Cit peptide (IC50 nM)
[4] = citrullinated 15-mer peptide (X = citrulline), purified HLA-DRB1*04:01, read-out: DRB1*04:01 binding capacity, Cit peptide (IC50 nM)
[5] = citrullinated 15-mer (X), purified MHC, inhibition of radiolabeled peptide binding, dash = IC50 >40,000 nM, read-out: DRB1*01:01 binding capacity, Cit peptide (IC50 nM)
[6] = citrullinated 15-mer (X), purified MHC, inhibition of radiolabeled peptide binding, dash = IC50 >40,000 nM, read-out: DRB1*04:01 binding capacity, Cit peptide (IC50 nM)

Structure (SMILES) | IC50 (HLA-DRB1*01:01; [3]) [nM] | IC50 (HLA-DRB1*04:01; [4]) [nM] | other results
CSCC[C@H](NC(=O)[C@H](Cc1ccc(O)cc1)NC(=O)[C@H](CCC(N)=O)NC(=O)[C@H](CC(C)C)NC(=O)[C@@H]1CCCN1C(=O)[C@H](CC(=O)O)NC(=O)[C@@H]1CCCN1C(=O)CNC(=O)[C@H](CCCCN)NC(=O)[C@H](CCC(=O)O)NC(=O)[C@H](CCCNC(=N)N)NC(=O)[C@@H]1CCCN1C(=O)CNC(=O)[C@@H](N)CC(C)C)C(=O)N[C@@H](CCCNC(N)=O)C(=O)O [LGPREKGPDPLQYMX] (H-LGPREKGPDPLQYM[Cit]-OH) | – | – | IC50 (HLA-DRB1*01:01; [1]): 19700 nM; IC50 (HLA-DRB1*04:01; [2]): > 40000 nM; IC50 (HLA-DRB1*04:01; value of the wild-type (non-citrullinated) counterpart of the listed peptide, read-out: DRB1*04:01 binding capacity WT peptide (IC50 nM)): > 40000 nM
CSCC[C@H](NC(=O)[C@H](Cc1ccc(O)cc1)NC(=O)[C@H](CCC(N)=O)NC(=O)[C@H](CC(C)C)NC(=O)[C@@H]1CCCN1C(=O)[C@H](CC(=O)O)NC(=O)[C@@H]1CCCN1C(=O)CNC(=O)[C@H](CCCCN)NC(=O)[C@H](CCC(=O)O)NC(=O)[C@H](CCCNC(N)=O)NC(=O)[C@@H]1CCCN1C(=O)CNC(=O)[C@@H](N)CC(C)C)C(=O)N[C@@H](CCCNC(=N)N)C(=O)O [LGPXEKGPDPLQYMR] (H-LGP[Cit]EKGPDPLQYMR-OH) | 10900 | > 40000 | –
CSCC[C@H](NC(=O)[C@@H](NC(=O)CNC(=O)[C@@H](N)CC(C)C)C(C)C)C(=O)N[C@@H](CCC(N)=O)C(=O)NCC(=O)N1CCC[C@H]1C(=O)N[C@@H](CCSC)C(=O)NCC(=O)N1CCC[C@H]1C(=O)N[C@@H](CCSC)C(=O)NCC(=O)N1CCC[C@H]1C(=O)N[C@@H](CCCNC(N)=O)C(=O)NCC(=O)O [LGVMQGPMGPMGPXG] (H-LGVMQGPMGPMGP[Cit]G-OH) | 220 | > 40000 | –
CC(C)C[C@H](NC(=O)[C@H](CCC(=O)O)NC(=O)[C@H](C)NC(=O)[C@H](CC(C)C)NC(=O)[C@@H](N)CC(C)C)C(=O)N[C@@H](CCC(=O)O)C(=O)N[C@@H](CCC(N)=O)C(=O)N[C@@H](CC(C)C)C(=O)N[C@@H](CCCCN)C(=O)NCC(=O)N[C@@H](CCC(N)=O)C(=O)NCC(=O)N[C@@H](CCCCN)C(=O)N[C@@H](CO)C(=O)N[C@@H](CCCNC(N)=O)C(=O)O [LLAELEQLKGQGKSX] (H-LLAELEQLKGQGKS[Cit]-OH) | – | – | IC50 (HLA-DRB1*01:01; [5]): 428 nM; IC50 (HLA-DRB1*04:01; [6]): > 40000 nM
CC[C@H](C)[C@H](NC(=O)[C@H](CC(C)C)NC(=O)[C@@H](N)CC(C)C)C(=O)N[C@@H](CCC(N)=O)C(=O)NCC(=O)N[C@@H](CO)C(=O)N[C@@H](CC(N)=O)C(=O)N[C@@H](CC(=O)O)C(=O)N[C@H](C(=O)N[C@@H](CCC(=O)O)C(=O)N[C@H](C(=O)N[C@@H](CCCNC(N)=O)C(=O)N[C@@H](C)C(=O)N[C@@H](CCC(=O)O)C(=O)NCC(=O)O)[C@@H](C)CC)C(C)C [LLIQGSNDVEIXAEG] (H-LLIQGSNDVEI[Cit]AEG-OH) | – | – | IC50 (HLA-DRB1*01:01; [1]): 998 nM; IC50 (HLA-DRB1*04:01; [2]): 8740 nM
CC(C)C[C@H](NC(=O)CNC(=O)[C@H](CCCNC(=N)N)NC(=O)[C@H](C)NC(=O)CNC(=O)[C@@H]1CCCN1C(=O)[C@@H](N)CC(C)C)C(=O)N[C@H](C(=O)NCC(=O)N[C@@H](CCCNC(N)=O)C(=O)N1CCC[C@H]1C(=O)NCC(=O)N[C@@H](CC(=O)O)C(=O)N[C@@H](C)C(=O)NCC(=O)O)[C@@H](C)O [LPGARGLTGXPGDAG] (H-LPGARGLTG[Cit]PGDAG-OH) | 18 | > 40000 | –
CC(C)C[C@H](NC(=O)CNC(=O)[C@H](CCCNC(N)=O)NC(=O)[C@H](C)NC(=O)CNC(=O)[C@@H]1CCCN1C(=O)[C@@H](N)CC(C)C)C(=O)N[C@H](C(=O)NCC(=O)N[C@@H](CCCNC(=N)N)C(=O)N1CCC[C@H]1C(=O)NCC(=O)N[C@@H](CC(=O)O)C(=O)N[C@@H](C)C(=O)NCC(=O)O)[C@@H](C)O [LPGAXGLTGRPGDAG] (H-LPGA[Cit]GLTGRPGDAG-OH) | 2930 | > 40000 | –
CSCC[C@H](NC(=O)[C@H](Cc1ccc(O)cc1)NC(=O)[C@H](CCC(N)=O)NC(=O)[C@@H](N)CC(C)C)C(=O)N[C@@H](CCCNC(=N)N)C(=O)N[C@@H](C)C(=O)N[C@@H](CC(=O)O)C(=O)N[C@@H](CCC(N)=O)C(=O)N[C@@H](C)C(=O)N[C@@H](C)C(=O)NCC(=O)NCC(=O)N[C@@H](CC(C)C)C(=O)N[C@@H](CCCNC(N)=O)C(=O)N[C@@H](CCC(N)=O)C(=O)O [LQYMRADQAAGGLXQ] (H-LQYMRADQAAGGL[Cit]Q-OH) | – | – | IC50 (HLA-DRB1*01:01; [1]): 64 nM; IC50 (HLA-DRB1*04:01; [2]): 83 nM
CSCC[C@H](NC(=O)[C@H](Cc1ccc(O)cc1)NC(=O)[C@H](CCC(N)=O)NC(=O)[C@@H](N)CC(C)C)C(=O)N[C@@H](CCCNC(N)=O)C(=O)N[C@@H](C)C(=O)N[C@@H](CC(=O)O)C(=O)N[C@@H](CCC(N)=O)C(=O)N[C@@H](C)C(=O)N[C@@H](C)C(=O)NCC(=O)NCC(=O)N[C@@H](CC(C)C)C(=O)N[C@@H](CCCNC(=N)N)C(=O)N[C@@H](CCC(N)=O)C(=O)O [LQYMXADQAAGGLRQ] (H-LQYM[Cit]ADQAAGGLRQ-OH) | – | – | IC50 (HLA-DRB1*01:01; [1]): 16 nM; IC50 (HLA-DRB1*04:01; [2]): 69 nM
CSCC[C@H](NC(=O)[C@H](CCCNC(N)=O)NC(=O)[C@H](CCCNC(=N)N)NC(=O)[C@H](Cc1ccc(O)cc1)NC(=O)[C@H](CO)NC(=O)[C@H](CO)NC(=O)[C@H](CO)NC(=O)[C@H](CO)NC(=O)[C@@H](NC(=O)[C@H](CO)NC(=O)[C@H](CCCNC(=N)N)NC(=O)[C@@H](NC(=O)[C@H](CO)NC(=O)[C@@H](N)CCSC)[C@@H](C)O)C(C)C)C(=O)N[C@@H](Cc1ccccc1)C(=O)O [MSTRSVSSSSYRXMF] (H-MSTRSVSSSSYR[Cit]MF-OH) | – | – | IC50 (HLA-DRB1*01:01; [5]): 672 nM; IC50 (HLA-DRB1*04:01; [6]): 443 nM

Continued, in another order:

IC50 (HLA-DRB1*01:01; [3]) [nM] | IC50 (HLA-DRB1*04:01; [4]) [nM] | Structure (SMILES) | other results
69 | 4340 | CC(C)C[C@H](NC(=O)[C@H](CC(N)=O)NC(=O)[C@@H](NC(=O)[C@H](CCC(=O)O)NC(=O)[C@H](CCCNC(N)=O)NC(=O)[C@H](CC(C)C)NC(=O)[C@H](CC(N)=O)NC(=O)[C@@H](N)CC(C)C)[C@@H](C)O)C(=O)N[C@@H](CC(=O)O)C(=O)N[C@@H](CO)C(=O)N[C@@H](CC(C)C)C(=O)N1CCC[C@H]1C(=O)N[C@@H](CC(C)C)C(=O)N[C@H](C(=O)N[C@@H](CC(=O)O)C(=O)O)C(C)C [LNLXETNLDSLPLVD] | –
344 | 2590 | CC[C@H](C)[C@H](NC(=O)[C@H](CC(C)C)NC(=O)[C@H](CC(C)C)NC(=O)[C@@H](NC(=O)[C@H](CCCNC(N)=O)NC(=O)[C@H](CCCCN)NC(=O)[C@H](CO)NC(=O)[C@H](Cc1c[nH]cn1)NC(=O)[C@@H](NC(=O)[C@H](CC(=O)O)NC(=O)[C@@H](NC(=O)[C@H](CC(C)C)NC(=O)[C@@H]1CCCN1C(=O)[C@@H](N)CC(C)C)C(C)C)[C@@H](C)O)[C@@H](C)O)C(=O)N[C@@H](CCCCN)C(=O)O [LPLVDTHSKXTLLIK] (H-LPLVDTHSK[Cit]TLLIK-OH) | –
93 | 32700 | CC(C)C[C@H](NC(=O)[C@@H](NC(=O)[C@H](C)NC(=O)[C@H](C)NC(=O)[C@@H](NC(=O)[C@@H](N)CC(C)C)C(C)C)C(C)C)C(=O)N[C@@H](CCCNC(N)=O)C(=O)N[C@@H](CS)C(=O)N[C@@H](CCC(N)=O)C(=O)NCC(=O)N[C@@H](CCC(N)=O)C(=O)N[C@@H](CC(=O)O)C(=O)N[C@H](C(=O)N[C@@H](CCC(N)=O)C(=O)N[C@@H](CCC(=O)O)C(=O)O)C(C)C [LVAAVLXCQGQDVQE] (H-LVAAVL[Cit]CQGQDVQE-OH) | –
64 | 4950 | CC[C@H](C)[C@H](NC(=O)[C@H](CCC(=O)O)NC(=O)[C@@H](NC(=O)[C@H](CC(=O)O)NC(=O)[C@H](CC(C)C)NC(=O)[C@H](C)NC(=O)[C@@H](N)CCSC)[C@@H](C)CC)C(=O)N[C@@H](C)C(=O)N[C@H](C(=O)N[C@@H](Cc1ccc(O)cc1)C(=O)N[C@@H](CCCNC(N)=O)C(=O)N[C@@H](CCCCN)C(=O)N[C@@H](CC(C)C)C(=O)N[C@@H](CC(C)C)C(=O)N[C@@H](CCC(=O)O)C(=O)O)[C@@H](C)O [MALDIEIATYXKLLE] (H-MALDIEIATY[Cit]KLLE-OH) | –
577 | 3130 | CSCC[C@H](N)C(=O)N[C@@H](C)C(=O)N[C@@H](CCCNC(=N)N)C(=O)N[C@@H](Cc1c[nH]cn1)C(=O)N[C@@H](CC(C)C)C(=O)N[C@@H](CCCNC(N)=O)C(=O)N[C@@H](CCC(=O)O)C(=O)N[C@@H](Cc1ccc(O)cc1)C(=O)N[C@@H](CCC(N)=O)C(=O)N[C@@H](CC(=O)O)C(=O)N[C@@H](CC(C)C)C(=O)N[C@@H](CC(C)C)C(=O)N[C@@H](CC(N)=O)C(=O)N[C@H](C(=O)N[C@@H](CCCCN)C(=O)O)C(C)C [MARHLXEYQDLLNVK] (H-MARHL[Cit]EYQDLLNVK-OH) | –
494 | 4320 | CSCC[C@H](N)C(=O)N[C@@H](C)C(=O)N[C@@H](CCCNC(N)=O)C(=O)N[C@@H](Cc1c[nH]cn1)C(=O)N[C@@H](CC(C)C)C(=O)N[C@@H](CCCNC(=N)N)C(=O)N[C@@H](CCC(=O)O)C(=O)N[C@@H](Cc1ccc(O)cc1)C(=O)N[C@@H](CCC(N)=O)C(=O)N[C@@H](CC(=O)O)C(=O)N[C@@H](CC(C)C)C(=O)N[C@@H](CC(C)C)C(=O)N[C@@H](CC(N)=O)C(=O)N[C@H](C(=O)N[C@@H](CCCCN)C(=O)O)C(C)C [MAXHLREYQDLLNVK] (H-MA[Cit]HLREYQDLLNVK-OH) | –
15 | 641 | CC[C@H](C)[C@H](NC(=O)[C@@H](N)CCSC)C(=O)N[C@@H](CCCNC(N)=O)C(=O)N[C@@H](CC(C)C)C(=O)NCC(=O)N[C@@H](C)C(=O)N1CCC[C@H]1C(=O)N[C@@H](CCC(N)=O)C(=O)N[C@H](C(=O)N[C@@H](CC(C)C)C(=O)N[C@H](C(=O)N[C@@H](CC(C)C)C(=O)N[C@@H](CC(C)C)C(=O)N[C@H](C(=O)N[C@@H](CC(C)C)C(=O)O)[C@@H](C)O)C(C)C)[C@@H](C)O [MIXLGAPQTLVLLTL] (H-MI[Cit]LGAPQTLVLLTL-OH) | –

Reference: PMC5421785, “Citrullination only infrequently impacts peptide binding to HLA class II MHC” (PLoS ONE, 2017)
